# Reference: patent publication US5719145A, “Amidine derivatives and platelet aggregation inhibitor containing the same” (Mitsui Toatsu Chemicals, Inc., priority 1996, dated 1998)
# Structures can show the parent of a compound that is named as a salt.
# What was measured:
# [1] = biological target: T1, human fibrinogen receptor GP IIb/IIIa (Homo sapiens, UniProt P05106+P08514); assay: Binding inhibition of biotinylated fibrinogen to GP IIb/IIIa; conditions: purified human GP IIb/IIIa, read-out: Inhibition of GPIIb/IIIa . Fibrinogen Binding, IC50
# T1 construct: Concentrated and lyophilized human platelet (20 vial) (Organon Teknika Co.) was lysed; tissue Organon Teknika Co; host or cells: human platelets (lyophilized), lysed in Triton X-100
# T1 sequence (P08514 32-887 limits assumed): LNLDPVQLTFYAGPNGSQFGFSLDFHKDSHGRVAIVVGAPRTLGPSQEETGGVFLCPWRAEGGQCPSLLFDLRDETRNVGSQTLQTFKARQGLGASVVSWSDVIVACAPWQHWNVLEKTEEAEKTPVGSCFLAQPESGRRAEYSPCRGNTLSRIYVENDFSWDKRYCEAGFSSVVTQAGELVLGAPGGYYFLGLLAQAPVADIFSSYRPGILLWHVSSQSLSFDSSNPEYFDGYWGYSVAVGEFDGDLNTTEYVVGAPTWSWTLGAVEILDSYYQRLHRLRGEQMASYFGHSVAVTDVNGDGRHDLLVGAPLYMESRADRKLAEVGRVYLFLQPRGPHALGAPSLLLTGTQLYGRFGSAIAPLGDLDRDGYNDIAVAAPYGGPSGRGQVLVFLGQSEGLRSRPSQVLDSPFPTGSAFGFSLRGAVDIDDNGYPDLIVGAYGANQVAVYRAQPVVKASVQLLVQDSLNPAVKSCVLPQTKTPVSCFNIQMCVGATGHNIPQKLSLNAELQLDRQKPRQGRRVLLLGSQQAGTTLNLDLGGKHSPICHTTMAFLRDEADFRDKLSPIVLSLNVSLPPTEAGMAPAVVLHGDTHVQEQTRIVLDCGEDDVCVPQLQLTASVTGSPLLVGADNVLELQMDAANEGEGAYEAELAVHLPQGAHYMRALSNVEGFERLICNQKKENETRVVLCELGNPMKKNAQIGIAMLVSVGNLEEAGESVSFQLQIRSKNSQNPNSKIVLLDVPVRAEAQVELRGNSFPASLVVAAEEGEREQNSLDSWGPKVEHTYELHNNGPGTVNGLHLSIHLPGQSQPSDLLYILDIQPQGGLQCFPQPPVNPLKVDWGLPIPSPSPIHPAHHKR
# T1 sequence (P08514 891-1039 partner limits assumed): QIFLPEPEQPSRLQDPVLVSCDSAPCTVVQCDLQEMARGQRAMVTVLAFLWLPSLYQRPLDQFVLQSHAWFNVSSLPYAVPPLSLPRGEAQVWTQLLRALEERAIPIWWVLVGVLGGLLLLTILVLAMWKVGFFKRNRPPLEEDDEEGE
# T1 sequence (P05106 27-788): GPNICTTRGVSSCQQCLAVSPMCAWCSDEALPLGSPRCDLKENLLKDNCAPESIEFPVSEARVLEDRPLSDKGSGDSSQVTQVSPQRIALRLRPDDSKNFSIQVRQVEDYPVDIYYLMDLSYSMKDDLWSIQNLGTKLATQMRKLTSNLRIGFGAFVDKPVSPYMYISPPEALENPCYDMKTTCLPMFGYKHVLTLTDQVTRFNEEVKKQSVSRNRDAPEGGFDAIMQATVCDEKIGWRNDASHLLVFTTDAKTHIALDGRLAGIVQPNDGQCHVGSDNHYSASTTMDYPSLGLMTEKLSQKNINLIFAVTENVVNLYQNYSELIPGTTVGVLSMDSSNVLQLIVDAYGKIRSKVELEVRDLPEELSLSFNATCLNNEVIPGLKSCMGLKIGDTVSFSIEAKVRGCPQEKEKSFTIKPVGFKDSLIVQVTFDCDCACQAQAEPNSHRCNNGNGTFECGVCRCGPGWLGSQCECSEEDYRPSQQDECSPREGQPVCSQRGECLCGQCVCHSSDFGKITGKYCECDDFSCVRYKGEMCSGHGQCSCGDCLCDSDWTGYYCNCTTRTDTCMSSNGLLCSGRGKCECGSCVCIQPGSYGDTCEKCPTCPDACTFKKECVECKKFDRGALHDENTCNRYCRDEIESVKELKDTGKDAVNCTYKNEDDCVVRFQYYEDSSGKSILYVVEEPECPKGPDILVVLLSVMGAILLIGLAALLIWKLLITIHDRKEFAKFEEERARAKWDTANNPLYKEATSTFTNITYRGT
# Procedure: Experiment for binding inhibition between GP IIb/IIIa and fibrinogen
# 1. Purification of human fibrinogen receptor GP IIb/IIIa
# Concentrated and lyophilized human platelet (20 vial) (Organon Teknika Co.) was lysed in an antienzymic solution (80 ml) (1% Triton X-100, 10 mM Tris-HCl, 150 mM NaCl, 1 mM CaCl2, 10 μM leupeptin, 1 mM phenylmethane sulfonyl fluoride, pH 7.4), allowed to incubate for an hour at 4° C., and centrifuged at 30,000×g for 15 minutes to recover the supernatant solution containing 150 mg of protein. The GP IIb/IIIa was purified according to the method of Phillips et al. [Methods in Enzymology Vol. 215, (J. J. Hawigar, Eds.), 244-263, Acedemic Press Inc., San Diego].
# 2. Preparation of biotinylated fibrinogen
# Human fibrinogen Grade L (KABI Co.) was purified by using Shepharose CL-6B and Lysine-Sepharose. Thus purified human fibrinogen (2.3 mg/ml) was dialyzed for 3 hours with 0.1M aqueous sodium bicarbonate solution at room temperature and successively diluted to 1 mg/ml. To the solution (4.5 ml) obtained, NHC-LC-Biotin (2 mg) (Pierce Co.) was added and reacted for 1 hour at room temperature to biotinylate fibrinogen. The reaction mixture was dialyzed at 4° C. for 24 hours with TBS (20 mM Tris-HCl, 150 mM NaCl, 1 mM CaCl2, 1 mM MgCl2, pH 7.4) to obtain biotinylated fibrinogen.
# 3. Binding inhibition of biotinylated fibrinogen to GP IIb/IIIa
# Specimen drugs were dissolved and diluted with TBS containing 1% BSA. To each solution, an equal volume of biotinylated fibrinogen (2 μg/ml) dissolved in TBS containing 1% BSA, was added. The inhibition percentage of specimen drugs were measured by the method of Mori et al. [Jpn. J. Thromb. Hemost., 2, 323-399 (1991) with small modification].
# Purified GP IIb/IIIa was diluted to 1.5 μg/ml in TBS containing 0.0005% of Triton X-100. The GP IIb/IIIa solution was added to a 96 well microplate (E.I.A/R.I.A. Plate, Costar Co.) in a volume of 100 μl for each well, and incubated at 4° C. for 24 hours to immobilize GP IIb/IIIa. The microplate was washed twice with a washing solution (TBS containing 0.01% of Tween 20). Thereafter TBS containing 3.5% of BSA was added to each well in a volume of 200 μl and blocking was carried out for about an hour at room temperature. The microplate was further washed twice with the washing solution, and successively a mixture of the specimen drug and the biotinylated fibrinogen was added in a volume of 100 μl/well and incubated for 24 hours at room temperature. The microplate was thereafter washed five times, and peroxidase-labeled streptoavidin (a kit of Amersham Co.) which was previously diluted 3000 times with TBS was added in a volume of 100 μl/well and incubated for about 30 minutes at room temperature. After washing the microplate 5 times, a 0.05M phosphate-citrate buffer solution (pH5) containing o-phenylenediamine(0.4 mg/ml) (manufactured by Sigma Co.) and H2 O2 (0.012%) was added in a volume of 200 μl/well to develop color for 20-40 minutes. The reaction was stopped by addition of 0.3M sulfuric acid in a volume of 50 μl/well and absorbance at 490 nm was measured with Immunoreader NJ-200 (manufactured by Inter Med Co.). […]
# [2] = test system: guinea pig platelets (platelet-rich plasma); assay: In vitro inhibition of platelet aggregation in guinea pig (ADP-induced, PRP); type: cell-based; conditions: Cavia porcellus, ADP final concentration 5 μM, read-out: Platelet aggregation inhibitory activity in guinea pig, IC50
# Procedure: In vitro experiment of platelet aggregation inhibition
# 1. Inhibition of platelet aggregation in Guinea pig
# Blood of male guinea pig was collected with an injection syringe which contains 3.8 % sodium citrate as an anticoagulant in a ratio of 1 volume to 9 volumes of the blood. Successively, the collected blood mixture was subjected to centrifugation at 120×g for 15 minutes at room temperature to obtain platelet-rich plasma (PRP). An aliquot of PRP was further subjected to centrifugation at 1,200×g for 15 minutes to obtain platelet-poor plasma (PPP). Numbers of the platelet in PRP were measured with an automatic platelet counter: Sysmex PL-100 (manufactured by Toa Iyodenshi Co.) and PRP was diluted with PPP so as to adjust a platelet concentration to be about 300,000 particles/ μl. Platelet aggregation was measured by the following procedure with a 6 channel aggregometer: HEMA TRACER 1 (manufactured by NKK Co.).
# (§1) After incubation of 240 μl of PRP at 37° C. for 2 minutes, 30 μl of the solvent of specimen as a control or of the specimen in various concentrations was added to PRP. Further 2 minutes later, 30 μl of adenosine diphosphate (final concentration: 5μM) was added to induce platelet aggregation. An inhibition percentage was obtained by comparing the maximum aggregation of the specimen drug group with that of control. […]
# [3] = test system: human platelets (platelet-rich plasma); assay: In vitro inhibition of platelet aggregation in human (ADP-induced, PRP); type: cell-based; conditions: ADP final concentration 5 μM, read-out: Platelet aggregation inhibitory activity in human, IC50
# Procedure: 2. Inhibition of platelet aggregation in human
# Blood was collected from healthy human volunteers with an injection syringe and mixed one volume of 3.8% of sodium citrate as an anticoagulant to 9 volumes of the blood. Successively, the obtained blood mixture was subjected to centrifugation at 120×g for 15 minutes at room temperature to obtain platelet-rich plasma (PRP). An aliquot of PRP was further subjected to centrifugation at 1,200×g for 20 minutes to obtain platelet-poor plasma (PPP). Numbers of the platelet were measured with an automatic platelet counter: Sysmex PL-100 (manufactured by Toa Iyodenshi Co.) and PRP was diluted with PPP so as to adjust a platelet concentration to be about 250,000 particles/μl. Platelet aggregation was measured by the following procedure with a 6 channel aggregometer: HEMA TRACER 1 (manufactured by NKK Co.)
# as §1, with “or” for “or of”, “5 μM)” for “5μM)”
SMILES,IC50 [1] [nM],IC50 [2] [nM],IC50 [3] [nM]
"N=C(c1ccc(C(=O)Nc2ccc3c(c2)CC(CC(=O)O)CC3)cc1)N1CCSCC1 (stereo not drawn) [Example 13, 7-[[4-(thiomorpholinoiminomethyl)benzoyl]amino]-1,2,3,4-tetrahydronaphthalene-2-acetic acid hydrochloride]",0.28,170,60
"C#CCN=C(N)c1ccc(C(=O)Nc2ccc3c(c2)CC(CC(=O)O)CC3)cc1 (stereo not drawn) [Example 25, 7-[[4-(N^2-propargylamidino)benzoyl]amino]-1,2,3,4-tetrahydronaphthalene-2-acetic acid hydrochloride]",0.18,280,100
